Source: BindingDB's records for doi:10.1021/jm2013826 (2012)

Biological target: Integrin alpha-IIb/beta-3 (Homo sapiens, UniProt P08514+P05106)
Experiment: Inhibition of integrin alpha2bbeta3-mediated platelet aggregation in human TRAP-6-activated whole blood for 6 mins by impedence-based aggregometry

Chain of Integrin alpha-IIb/beta-3 (P05106 27-788 limits assumed): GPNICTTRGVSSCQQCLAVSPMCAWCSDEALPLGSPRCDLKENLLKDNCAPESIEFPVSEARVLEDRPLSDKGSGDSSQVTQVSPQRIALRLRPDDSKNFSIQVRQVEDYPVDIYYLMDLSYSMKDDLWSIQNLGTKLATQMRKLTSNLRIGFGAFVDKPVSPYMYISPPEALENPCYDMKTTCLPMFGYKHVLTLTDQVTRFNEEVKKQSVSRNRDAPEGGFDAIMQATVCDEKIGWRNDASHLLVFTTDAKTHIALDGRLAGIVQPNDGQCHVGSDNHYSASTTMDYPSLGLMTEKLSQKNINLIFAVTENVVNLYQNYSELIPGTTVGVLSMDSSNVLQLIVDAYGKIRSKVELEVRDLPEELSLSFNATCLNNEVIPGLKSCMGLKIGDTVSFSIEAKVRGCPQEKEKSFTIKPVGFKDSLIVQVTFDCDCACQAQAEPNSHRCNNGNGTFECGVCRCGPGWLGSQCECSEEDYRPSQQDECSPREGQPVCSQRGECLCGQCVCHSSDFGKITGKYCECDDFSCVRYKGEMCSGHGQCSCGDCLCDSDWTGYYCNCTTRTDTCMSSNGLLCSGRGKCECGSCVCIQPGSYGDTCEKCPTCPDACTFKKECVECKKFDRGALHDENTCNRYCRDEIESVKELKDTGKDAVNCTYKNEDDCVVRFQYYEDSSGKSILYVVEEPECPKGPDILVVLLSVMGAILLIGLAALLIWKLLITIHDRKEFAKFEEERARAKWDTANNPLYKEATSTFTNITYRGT
Chain of Integrin alpha-IIb/beta-3 (P08514 32-887 limits assumed): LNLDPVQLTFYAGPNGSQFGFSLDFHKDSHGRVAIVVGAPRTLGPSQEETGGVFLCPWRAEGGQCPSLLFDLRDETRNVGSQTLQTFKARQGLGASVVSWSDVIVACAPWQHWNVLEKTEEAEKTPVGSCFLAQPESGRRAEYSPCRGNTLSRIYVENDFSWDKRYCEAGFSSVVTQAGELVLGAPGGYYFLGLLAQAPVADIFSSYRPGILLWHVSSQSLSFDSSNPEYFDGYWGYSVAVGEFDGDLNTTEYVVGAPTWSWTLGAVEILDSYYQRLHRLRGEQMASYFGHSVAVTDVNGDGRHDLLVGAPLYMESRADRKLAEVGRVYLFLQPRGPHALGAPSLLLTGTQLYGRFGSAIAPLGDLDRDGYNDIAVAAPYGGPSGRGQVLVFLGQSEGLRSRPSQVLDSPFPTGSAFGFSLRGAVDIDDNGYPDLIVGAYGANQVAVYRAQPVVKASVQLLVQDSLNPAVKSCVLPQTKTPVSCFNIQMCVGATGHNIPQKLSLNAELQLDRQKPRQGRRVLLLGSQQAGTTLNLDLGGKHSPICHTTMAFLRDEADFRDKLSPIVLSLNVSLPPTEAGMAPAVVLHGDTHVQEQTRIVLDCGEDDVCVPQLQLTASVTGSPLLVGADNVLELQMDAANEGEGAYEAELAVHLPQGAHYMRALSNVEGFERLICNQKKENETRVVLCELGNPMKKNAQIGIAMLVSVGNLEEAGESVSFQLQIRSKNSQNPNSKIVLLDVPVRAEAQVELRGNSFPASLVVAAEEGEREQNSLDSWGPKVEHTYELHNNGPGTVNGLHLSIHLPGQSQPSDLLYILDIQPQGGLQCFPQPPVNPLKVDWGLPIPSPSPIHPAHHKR
Chain of Integrin alpha-IIb/beta-3 (P08514 891-1039 limits assumed): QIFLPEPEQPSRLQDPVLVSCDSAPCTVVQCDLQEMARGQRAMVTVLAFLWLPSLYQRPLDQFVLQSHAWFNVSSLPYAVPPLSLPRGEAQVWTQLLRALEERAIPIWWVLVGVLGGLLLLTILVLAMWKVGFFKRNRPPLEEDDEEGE

Compound	EC50 [nM]
O=C(NC[C@H](NS(=O)(=O)c1ccccc1)[PH](=O)O)c1ccc(OCCC2CCNCC2)cc1	7.8
O=C(NC[C@H](NS(=O)(=O)c1ccccc1)P(=O)(O)O)c1ccc(OCCC2CCNCC2)cc1	276
COP(=O)(O)[C@H](CNC(=O)c1ccc(OCCC2CCNCC2)cc1)NS(=O)(=O)c1ccccc1	40.8
